# Tests used:
# [1] = compound: CN(CC[C@H](CSC1=CC=CC=C1)NC2=C(C=C(C=C2)S(=O)(=O)NC(=O)C3=CC=C(C=C3)N4CCC(CC4)[C@H](C5=CC=CC=C5C6=CC=C(C=C6)Cl)O)S(=O)(=O)C(F)(F)F)CCO [AZD4320]; settings: max 1 µM
# Summary of the method: (§1)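 Viability was measured with CellTiter-Glo 2.0 luminescence after 72 hours of dosing at a final DMSO of typically 0.2%, and scaled between blank-well and DMSO-well means. Beforehand, cancer cell lines sat 24 hours at 37°C and 5% CO2 in 1536-well plates in 7.5 μl DMEM/F12 or RPMI with 10% FBS. A non-linear mixed effects model fitted two-parameter logistic curves to the dose responses. The single-agent IC50 comes from these fits.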
# [2] = compound: C[C@@H](Oc1cc(-c2cnn(C3CCNCC3)c2)cnc1N)c1c(Cl)ccc(F)c1Cl [Crizotinib]; settings: max 10 µM
# Summary of the method: as §1
# [3] = compound: Cn1cnc2c(F)c(Nc3ccc(Br)cc3Cl)c(C(=O)NOCCO)cc21 [Selumetinib]; settings: max 10 µM
# Summary of the method: as §1
# [4] = compound: Cc1nc(-c2cn3c(n2)-c2ccc(-c4cnn(C(C)(C)C(N)=O)c4)cc2OCC3)n(C(C)C)n1 [Taselisib]; settings: max 10 µM
# Summary of the method: as §1
# [5] = compound: C[C@@H](Nc1cc(F)cc(F)c1)c1cc(C(=O)N(C)C)cc2c(=O)cc(N3CCOCC3)oc12 [AZD8186]; settings: max 3 µM
# Summary of the method: as §1
# [6] = compound: CS(=O)(=O)CCNCc1ccc(-c2ccc3ncnc(Nc4ccc(OCc5cccc(F)c5)c(Cl)c4)c3c2)o1 [Lapatinib]; settings: max 10 µM
# Summary of the method: as §1
# [7] = compound: C[C@@H](c1ccc2nccn2c1)n1nnc2ncc(-c3cnn(C)c3)nc21 [Savolitinib]; settings: max 1 µM
# Summary of the method: as §1
# [8] = compound: CC(=O)Nc1cccc(-n2c(=O)n(C3CC3)c(=O)c3c(Nc4ccc(I)cc4F)n(C)c(=O)c(C)c32)c1 [Trametinib]; settings: max 1 µM
# Summary of the method: as §1
# [9] = compound: CCc1c2c(nc3ccc(O)cc13)-c1cc3c(c(=O)n1C2)COC(=O)[C@]3(O)CC [SN-38]; settings: max 0.3 µM
# Summary of the method: as §1
# [10] = compound: CCN(CCO)CCCOc1ccc2c(Nc3cc(CC(=O)Nc4cccc(F)c4)[nH]n3)ncnc2c1 [AZD2811]; settings: max 1 µM
# Summary of the method: as §1
# [11] = compound: CN(C)CCCOc1ccc(-c2ccc3ncc4c(c3c2)n(C2CCOCC2)c(=O)n4C)cn1 [AZD0156]; settings: max 3 µM
# Summary of the method: as §1
# [12] = compound: COc1cc2ncnc(Nc3ccc(F)c(Cl)c3)c2cc1OCCCN1CCOCC1 [Gefitinib]; settings: max 10 µM
# Summary of the method: as §1
# [13] = compound: CC1=C(C(=CC=C1)Cl)NC(=O)C2=CN=C(S2)NC3=CC(=NC(=N3)C)N4CCN(CC4)CCO [Dasatinib]; settings: max 2 µM
# Summary of the method: as §1
# [14] = compound: CC1=CN2[C@@H](C1)C=NC3=CC(=C(C=C3C2=O)OC)OCCCCCOC4=C(C=C5C(=C4)N=C[C@@H]6CC(=CN6C5=O)C)OC [SG3199]; settings: max 0.001 µM
# Summary of the method: as §1
# [15] = compound: C[C@@H]1COCCN1C2=NC(=NC(=C2)C3(CC3)[S@](=N)(=O)C)C4=C5C=CNC5=NC=C4 [AZD6738]; settings: max 10 µM
# Summary of the method: as §1
# [16] = compound: C=CCn1c(=O)c2cnc(Nc3ccc(N4CCN(C)CC4)cc3)nc2n1-c1cccc(C(C)(C)O)n1 [AZD1775]; settings: max 3 µM
# Summary of the method: as §1
# [17] = compound: Cc1c2c(nn1C)CSCc1cc(n(C)n1)CSc1cc(c3ccccc3c1)OCCCc1c(C(=O)O)n(C)c3c-2c(Cl)ccc13 [AZD5991]; settings: max 1 µM
# Summary of the method: as §1
# [18] = compound: CC(=O)c1c(C)c2cnc(Nc3ccc(N4CCNCC4)cn3)nc2n(C2CCCC2)c1=O [Palbociclib]; settings: max 10 µM
# Summary of the method: as §1
# [19] = compound: COc1cccc2c1C(=O)c1c(O)c3c(c(O)c1C2=O)C[C@@](O)(C(=O)CO)C[C@@H]3O[C@H]1C[C@H](N)[C@H](O)[C@H](C)O1 [Doxorubicin]; settings: max 1 µM
# Summary of the method: as §1
# [20] = compound: CC1(C)CCC(CN2CCN(c3ccc(C(=O)NS(=O)(=O)c4ccc(NCC5CCOCC5)c([N+](=O)[O-])c4)c(Oc4cnc5[nH]ccc5c4)c3)CC2)=C(c2ccc(Cl)cc2)C1 [Venetoclax]; settings: max 1 µM
# Summary of the method: as §1
# [21] = compound: COc1cccc(OCCCN)c1-c1cc(Nc2cnc(C#N)cn2)n[nH]1 [Prexasertib]; settings: max 1 µM
# Summary of the method: as §1
# [22] = compound: O=C(c1cc(Cc2n[nH]c(=O)c3ccccc23)ccc1F)N1CCN(C(=O)C2CC2)CC1 [Olaparib]; settings: max 10 µM
# Summary of the method: as §1
# [23] = compound: CC(C)n1c(=O)n(C)c2cnc3cc(F)c(-c4ccc(OCCCN5CCCCC5)nc4)cc3c21 [AZD1390]; settings: max 0.3 µM
# Summary of the method: as §1
# [24] = compound: COc1cc(Nc2ncc3c(n2)-c2ccc(Cl)cc2C(c2c(F)cccc2OC)=NC3)ccc1C(=O)O [Alisertib]; settings: max 10 µM
# Summary of the method: as §1
# [25] = compound: Cc1cc2ncnn2cc1Nc1ncc2c(n1)n(C1CCOCC1)c(=O)n2C [AZD7648]; settings: max 10 µM
# Summary of the method: as §1
# [26] = compound: C1CN(CCC1(C(=O)N[C@@H](CCO)C2=CC=C(C=C2)Cl)N)C3=NC=NC4=C3C=CN4 [Capivasertib]; settings: max 10 µM
# Summary of the method: as §1
# [27] = compound: COc1nnc2ccc(N3CCC(c4ccc(OCCN5CCN(C)C(=O)[C@H]5C)cc4)CC3)nn12 [AZD5153]; settings: max 1 µM
# Summary of the method: as §1
# [28] = compound: NC1(c2ccc(-c3nc4ccn5c(=O)[nH]nc5c4cc3-c3ccccc3)cc2)CCC1 [MK-2206]; settings: max 10 µM
# Summary of the method: as §1
Cell Line,"IC50, cell viability 72 h [1]","IC50, cell viability 72 h [2]","IC50, cell viability 72 h [3]","IC50, cell viability 72 h [4]","IC50, cell viability 72 h [5]","IC50, cell viability 72 h [6]","IC50, cell viability 72 h [7]","IC50, cell viability 72 h [8]","IC50, cell viability 72 h [9]","IC50, cell viability 72 h [10]","IC50, cell viability 72 h [11]","IC50, cell viability 72 h [12]","IC50, cell viability 72 h [13]","IC50, cell viability 72 h [14]","IC50, cell viability 72 h [15]","IC50, cell viability 72 h [16]","IC50, cell viability 72 h [17]","IC50, cell viability 72 h [18]","IC50, cell viability 72 h [19]","IC50, cell viability 72 h [20]","IC50, cell viability 72 h [21]","IC50, cell viability 72 h [22]","IC50, cell viability 72 h [23]","IC50, cell viability 72 h [24]","IC50, cell viability 72 h [25]","IC50, cell viability 72 h [26]","IC50, cell viability 72 h [27]","IC50, cell viability 72 h [28]"
HeLa (Cervical Carcinoma),> 1000 nM,> 10000 nM,> 10000 nM,> 10000 nM,> 3000 nM,> 10000 nM,> 1000 nM,> 1000 nM,> 300 nM,> 1000 nM,> 3000 nM,> 10000 nM,> 2000 nM,> 1 nM,> 10000 nM,893 nM,> 1000 nM,> 10000 nM,> 1000 nM,> 1000 nM,105 nM,> 10000 nM,> 300 nM,> 10000 nM,> 10000 nM,> 10000 nM,> 1000 nM,
Detroit562 (Head and Neck Carcinoma),> 1000 nM,1680 nM,> 10000 nM,355 nM,> 3000 nM,2020 nM,> 1000 nM,> 1000 nM,22 nM,188 nM,> 3000 nM,> 10000 nM,115 nM,> 1 nM,2150 nM,430 nM,> 1000 nM,> 10000 nM,> 1000 nM,> 1000 nM,29.5 nM,> 10000 nM,> 300 nM,760 nM,> 10000 nM,6950 nM,65.2 nM,
HuH-7 (Hepatocellular Carcinoma),> 1000 nM,> 10000 nM,> 10000 nM,> 10000 nM,> 3000 nM,> 10000 nM,> 1000 nM,> 1000 nM,> 300 nM,> 1000 nM,> 3000 nM,> 10000 nM,> 2000 nM,> 1 nM,> 10000 nM,> 3000 nM,> 1000 nM,> 10000 nM,> 1000 nM,> 1000 nM,> 1000 nM,> 10000 nM,> 300 nM,> 10000 nM,> 10000 nM,> 10000 nM,> 1000 nM,
BFTC-909 (Kidney Carcinoma),> 1000 nM,> 10000 nM,> 10000 nM,3930 nM,> 3000 nM,> 10000 nM,> 1000 nM,> 1000 nM,38.7 nM,> 1000 nM,> 3000 nM,> 10000 nM,> 2000 nM,> 1 nM,3460 nM,579 nM,> 1000 nM,> 10000 nM,616 nM,> 1000 nM,24.7 nM,> 10000 nM,> 300 nM,7720 nM,> 10000 nM,6100 nM,909 nM,> 10000 nM
OV-56 (Ovarian Carcinoma),> 1000 nM,> 10000 nM,> 10000 nM,> 10000 nM,> 3000 nM,> 10000 nM,> 1000 nM,> 1000 nM,25 nM,> 1000 nM,> 3000 nM,> 10000 nM,> 2000 nM,> 1 nM,> 10000 nM,> 3000 nM,> 1000 nM,> 10000 nM,> 1000 nM,> 1000 nM,42.2 nM,> 10000 nM,> 300 nM,> 10000 nM,> 10000 nM,> 10000 nM,> 1000 nM,
BE2-M17 (Neuroblastoma),> 1000 nM,8330 nM,9300 nM,2620 nM,> 3000 nM,> 10000 nM,> 1000 nM,127 nM,14.5 nM,> 1000 nM,> 3000 nM,> 10000 nM,> 2000 nM,> 1 nM,4840 nM,900 nM,324 nM,> 10000 nM,425 nM,> 1000 nM,24.9 nM,> 10000 nM,> 300 nM,1910 nM,> 10000 nM,> 10000 nM,> 1000 nM,
L-428 (Hodgkin's Lymphoma),475 nM,> 10000 nM,> 10000 nM,> 10000 nM,> 3000 nM,> 10000 nM,> 1000 nM,> 1000 nM,46.9 nM,> 1000 nM,> 3000 nM,> 10000 nM,> 2000 nM,> 1 nM,5400 nM,429 nM,> 1000 nM,> 10000 nM,106 nM,> 1000 nM,23.3 nM,> 10000 nM,> 300 nM,> 10000 nM,> 10000 nM,> 10000 nM,130 nM,

# From the supplement of paper PMC11061612
